Test results: PubChem BioAssay AID1963866 (Molecular Pharmacology Branch, DTP, NCI, 2024)

Test system: PDC KRAS tumor spheroids with HUVEC/MSC, viability
Assay: Anticancer human tumor 349418-098-R-PDC patient-derived lung adenocarcinoma cell line growth inhibition [KRAS2]
Conditions: for IC50: curve of first compound; for viability, T/C: stronger effect = lower value
Excerpt: Multicellular complex tumor spheroid response to RAS pathway inhibitors in combination with a targeted agents in patient-derived cell lines with oncogenic KRAS variants from multiple cancer types
A high-throughput screen of multi-cell type tumor spheroids was designed to identify active combinations of targeted small molecules and KRAS pathway inhibitors. Complex spheroids include a stromal component modeled by human endothelial cells (HUVEC) and fibroblasts modeled by human mesenchymal stem cells (MSCs). The concentration ranges selected for each drug and investigational agent were based upon clinically achievable concentrations if the clinical Cmax of the agent was known.
Compounds. The drugs and investigational agents: BI-3406 (NSC825286), BAY-293 (NSC824723), batoprotafib (TNO155; NSC825523), sotorasib (AMG 510; NSC818433), MRTX1257 (NSC819558), elimusertib (BAY 1895344; NSC800525), molibresib (GSK525762; NSC774829), temuterkib (LY3214996; NSC803410), venetoclax (NSC766270), alisertib (NSC759677), olaparib (NSC753686), talazoparib (NSC767125), erdafitinib (NSC781556), ipatasertib (NSC767898), cabozantinib (NSC761068), nintedanib (NSC756659), abemaciclib (NSC768073), docetaxel (NSC628503), trametinib (NSC758246), and sapanisertib (NSC764658) were obtained from the National Cancer Institute (NCI) Developmental Therapeutics Program Chemical Repository. The FDA-approved anticancer drug set is available from the Developmental Therapeutics Program. […] The stock solutions were prepared in dimethyl sulfoxide (DMSO, Sigma-Aldrich, St. Louis, MO, cat. D2650) at 800-fold the tested concentration and stored at -70 degrees C prior to their use. All drugs and investigational agents were tested over a range starting from a high concentration at or near the clinical Cmax and decreasing in half-log increments. If the clinical Cmax for an agent had not been determined, the highest concentration tested was 10 microM.
Cell Culture. All cells were maintained in an incubator at 37 degrees C and 5% CO2 with 95% humidity. The PDC lines were cultured according to standard operating procedures established by the NCI PDMR (https://pdmr.cancer.gov/sops/default.htm). Briefly, all PDCs were thawed and cultured in Matrigel-coated flasks prepared with a working solution of 1X Ham's F-12 nutrient mix, without supplementation (Invitrogen, Waltham, MA, cat. 11765054), 100 U/mL penicillin-streptomycin (Invitrogen, cat. 15140122), and 2.5% Matrigel (Corning Inc., Corning, NY, cat. 354248) for the first three passages. All PDCs were cultured in complete DMEM/F-12 media containing advanced DMEM/F-12 (Invitrogen, cat. 12634028), 4.9% defined fetal bovine serum, heat inactivated (HyClone Laboratories Inc., Logan, UT, cat. SH30070.03HI), 389 ng/mL hydrocortisone (Sigma-Aldrich, cat. H4001), 9.7 ng/mL human EGF recombinant protein (Invitrogen, cat. PHG0313), 23.4 microg/mL adenine (Sigma-Aldrich, cat. A2786), 97.3 U/mL penicillin-streptomycin (Invitrogen, cat. 15140122), 1.9 mM L-glutamine (Invitrogen, cat. 25030081), and 9.7 microM Y-27632 dihydrochloride (Tocris Bioscience, Bristol, United Kingdom, cat. 1254). The PDCs were cultured in complete DMEM/F12 media without 9.7 microM Y-27632 dihydrochloride for at least two passages prior to the screen. The established cell line HOP-62 was cultured in RPMI 1640 medium, HEPES (Invitrogen, cat. 22400105) with 10% defined fetal bovine serum (HyClone Laboratories Inc., cat. SH30070.03) and 2 mM L-glutamine (Invitrogen, cat. 25030081). The pooled donor HUVEC were cultured in endothelial cell growth medium 2 (PromoCell, Heidelberg, Germany, cat. C-22011) and the hMSC were cultured in mesenchymal stem cell growth medium 2 (PromoCell, cat. C-28009). For all experiments, HUVEC and hMSC were used at passages </=5, while the malignant cell lines were used at passages </=15. […]

[1] = second compound 0.0316 µM, first compound 0.01 µM
[2] = second compound 0.0316 µM, first compound 0.0316 µM
[3] = second compound 0.0316 µM, first compound 0.1 µM
[4] = second compound 0.0316 µM, first compound 0.316 µM
[5] = second compound 0.0316 µM, first compound 1 µM
[6] = second compound 0.0316 µM, first compound 3.16 µM
[7] = second compound 0.1 µM, first compound 0.01 µM
[8] = second compound 0.1 µM, first compound 0.0316 µM
[9] = second compound 0.1 µM, first compound 0.1 µM
[10] = second compound 0.1 µM, first compound 0.316 µM
[11] = second compound 0.1 µM, first compound 1 µM
[12] = second compound 0.1 µM, first compound 3.16 µM
[13] = second compound 0.316 µM, first compound 0.01 µM
[14] = second compound 0.316 µM, first compound 0.0316 µM
[15] = second compound 0.316 µM, first compound 0.1 µM
[16] = second compound 0.316 µM, first compound 0.316 µM
[17] = second compound 0.316 µM, first compound 1 µM
[18] = second compound 0.316 µM, first compound 3.16 µM
[19] = second compound 1 µM, first compound 0.01 µM
[20] = second compound 1 µM, first compound 0.0316 µM
[21] = second compound 1 µM, first compound 0.1 µM
[22] = second compound 1 µM, first compound 0.316 µM
[23] = second compound 1 µM, first compound 1 µM
[24] = second compound 1 µM, first compound 3.16 µM
[25] = second compound 3.16 µM, first compound 0.01 µM
[26] = second compound 3.16 µM, first compound 0.0316 µM
[27] = second compound 3.16 µM, first compound 0.1 µM
[28] = second compound 3.16 µM, first compound 0.316 µM
[29] = second compound 3.16 µM, first compound 1 µM
[30] = second compound 3.16 µM, first compound 3.16 µM
[31] = second compound 0.0316 µM, first compound 10 µM
[32] = second compound 0.1 µM, first compound 10 µM
[33] = second compound 0.316 µM, first compound 10 µM
[34] = second compound 1 µM, first compound 10 µM
[35] = second compound 3.16 µM, first compound 10 µM
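Also: spheroids exposed to compounds for seven days before readout.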

Row | SMILES | IC50 (second compound 0.0316 µM) | IC50 (second compound 0.1 µM) | IC50 (second compound 0.316 µM) | IC50 (second compound 1 µM) | IC50 (second compound 3.16 µM) | viability, T/C [2] | viability, T/C [3] | viability, T/C [4] | viability, T/C [5] | viability, T/C [6] | viability, T/C [8] | viability, T/C [9] | viability, T/C [10] | viability, T/C [11] | viability, T/C [14] | viability, T/C [15] | viability, T/C [20] | viability, T/C [21] | viability, T/C [26] | viability, T/C [27] | further results
1 | CC(=O)OC12COC1CC(O)C1(C)C(=O)C(O)C3=C(C)C(OC(=O)C(O)C(NC(=O)OC(C)(C)C)c4ccccc4)CC(O)(C(OC(=O)c4ccccc4)C21)C3(C)C (stereo not given) + C=CC(=O)N1CCN(c2nc(OCC3CCCN3C)nc3c2CCN(c2cccc4cccc(C)c24)C3)CC1CC#N | < 10 nM | < 10 nM | < 10 nM | < 10 nM | < 10 nM | 20% | 16.5% | 17.8% | 24.9% | 23.5% | 12% | 15.2% | 17.2% | 21.1% | 14.2% | 12.8% | 12.5% | 12.2% | 14.4% | 19.9% | viability, T/C [1]: 12%; viability, T/C [7]: 13.5%; viability, T/C [12]: 18%; viability, T/C [13]: 10.8%; viability, T/C [16]: 14.6%; viability, T/C [17]: 18.3%; viability, T/C [18]: 18%; viability, T/C [19]: 9.34%; viability, T/C [22]: 11.6%; viability, T/C [23]: 14.8%; viability, T/C [24]: 17.5%; viability, T/C [25]: 12.8%; viability, T/C [28]: 20%; viability, T/C [29]: 19.5%; viability, T/C [30]: 24.3%
2 | CN(C)C/C=C/C(=O)Nc1cc2c(Nc3ccc(F)c(Cl)c3)ncnc2cc1O[C@H]1CCOC1 + C=CC(=O)N1CCN(c2nc(OCC3CCCN3C)nc3c2CCN(c2cccc4cccc(C)c24)C3)CC1CC#N | > 100 nM | > 100 nM | > 100 nM | > 100 nM | < 0.316 nM | 102% | 87.2% |  |  |  | 83.8% | 83.9% |  |  | 82.1% | 84.4% | 77.4% | 58.3% | 1.41% | 0.2% | viability, T/C (second compound 0.0316 µM, first compound 0.000316 µM): 102%; viability, T/C (second compound 0.0316 µM, first compound 0.001 µM): 101%; viability, T/C (second compound 0.0316 µM, first compound 0.00316 µM): 85%; viability, T/C [1]: 105%; viability, T/C (second compound 0.1 µM, first compound 0.000316 µM): 101%; viability, T/C (second compound 0.1 µM, first compound 0.001 µM): 109%; viability, T/C (second compound 0.1 µM, first compound 0.00316 µM): 86.3%; viability, T/C [7]: 92.9%; viability, T/C (second compound 0.316 µM, first compound 0.000316 µM): 99.9%; viability, T/C (second compound 0.316 µM, first compound 0.001 µM): 99.8%; viability, T/C (second compound 0.316 µM, first compound 0.00316 µM): 94.6%; viability, T/C [13]: 94.9%; viability, T/C (second compound 1 µM, first compound 0.000316 µM): 84.5%; viability, T/C (second compound 1 µM, first compound 0.001 µM): 75.2%; viability, T/C (second compound 1 µM, first compound 0.00316 µM): 65.9%; viability, T/C [19]: 69.4%; viability, T/C (second compound 3.16 µM, first compound 0.000316 µM): 0.17%; viability, T/C (second compound 3.16 µM, first compound 0.001 µM): 0.19%; viability, T/C (second compound 3.16 µM, first compound 0.00316 µM): 0.17%; viability, T/C [25]: 0.17%
3 | COC(=O)c1ccc2c(C(=Nc3ccc(N(C)C(=O)CN4CCN(C)CC4)cc3)c3ccccc3)c(O)[nH]c2c1 + C=CC(=O)N1CCN(c2nc(OCC3CCCN3C)nc3c2CCN(c2cccc4cccc(C)c24)C3)CC1CC#N | 456 nM | 320 nM | 154 nM | < 31.6 nM | < 31.6 nM | 65.9% | 78.3% | 58.5% | 28.9% | 15.6% | 88.9% | 87.6% | 46.3% | 25.4% | 75.2% | 51% | 44.8% | 24.2% | 0.1% | 0.08% | viability, T/C [31]: 15%; viability, T/C [12]: 9.49%; viability, T/C [32]: 9.82%; viability, T/C [16]: 42.3%; viability, T/C [17]: 30.4%; viability, T/C [18]: 10.6%; viability, T/C [33]: 6.76%; viability, T/C [22]: 27.8%; viability, T/C [23]: 23.8%; viability, T/C [24]: 0.91%; viability, T/C [34]: 0.96%; viability, T/C [28]: 0.07%; viability, T/C [29]: 0.05%; viability, T/C [30]: 0.03%; viability, T/C [35]: 0.05%
4 | O=C(c1cc(Cc2n[nH]c(=O)c3ccccc23)ccc1F)N1CCN(C(=O)C2CC2)CC1 + C=CC(=O)N1CCN(c2nc(OCC3CCCN3C)nc3c2CCN(c2cccc4cccc(C)c24)C3)CC1CC#N | 189 nM | 168 nM | 1190 nM | 353 nM | < 31.6 nM | 86.9% | 75.7% | 29.1% | 21.3% | 17.5% | 81.2% | 50.7% | 50.7% | 24.5% | 91.6% | 88% | 51.9% | 55.5% | 0.11% | 0.12% | viability, T/C [31]: 15.6%; viability, T/C [12]: 20.9%; viability, T/C [32]: 17.5%; viability, T/C [16]: 68.2%; viability, T/C [17]: 62.1%; viability, T/C [18]: 23.1%; viability, T/C [33]: 18.9%; viability, T/C [22]: 52.5%; viability, T/C [23]: 34.6%; viability, T/C [24]: 26.7%; viability, T/C [34]: 20.6%; viability, T/C [28]: 0.11%; viability, T/C [29]: 0.11%; viability, T/C [30]: 0.12%; viability, T/C [35]: 1.16%
